The structures appear in SMILES notation. Like-named read-outs stand apart in the source and are kept apart here.

Experiment [1] concerns the target T1, inducible nitric oxide synthase (iNOS) (Mus musculus, UniProt P29477).
T1 construct: endogenous in cells; host or cells: RAW264.7 mouse macrophages, LPS-induced
T1 sequence (P29477 1-1144): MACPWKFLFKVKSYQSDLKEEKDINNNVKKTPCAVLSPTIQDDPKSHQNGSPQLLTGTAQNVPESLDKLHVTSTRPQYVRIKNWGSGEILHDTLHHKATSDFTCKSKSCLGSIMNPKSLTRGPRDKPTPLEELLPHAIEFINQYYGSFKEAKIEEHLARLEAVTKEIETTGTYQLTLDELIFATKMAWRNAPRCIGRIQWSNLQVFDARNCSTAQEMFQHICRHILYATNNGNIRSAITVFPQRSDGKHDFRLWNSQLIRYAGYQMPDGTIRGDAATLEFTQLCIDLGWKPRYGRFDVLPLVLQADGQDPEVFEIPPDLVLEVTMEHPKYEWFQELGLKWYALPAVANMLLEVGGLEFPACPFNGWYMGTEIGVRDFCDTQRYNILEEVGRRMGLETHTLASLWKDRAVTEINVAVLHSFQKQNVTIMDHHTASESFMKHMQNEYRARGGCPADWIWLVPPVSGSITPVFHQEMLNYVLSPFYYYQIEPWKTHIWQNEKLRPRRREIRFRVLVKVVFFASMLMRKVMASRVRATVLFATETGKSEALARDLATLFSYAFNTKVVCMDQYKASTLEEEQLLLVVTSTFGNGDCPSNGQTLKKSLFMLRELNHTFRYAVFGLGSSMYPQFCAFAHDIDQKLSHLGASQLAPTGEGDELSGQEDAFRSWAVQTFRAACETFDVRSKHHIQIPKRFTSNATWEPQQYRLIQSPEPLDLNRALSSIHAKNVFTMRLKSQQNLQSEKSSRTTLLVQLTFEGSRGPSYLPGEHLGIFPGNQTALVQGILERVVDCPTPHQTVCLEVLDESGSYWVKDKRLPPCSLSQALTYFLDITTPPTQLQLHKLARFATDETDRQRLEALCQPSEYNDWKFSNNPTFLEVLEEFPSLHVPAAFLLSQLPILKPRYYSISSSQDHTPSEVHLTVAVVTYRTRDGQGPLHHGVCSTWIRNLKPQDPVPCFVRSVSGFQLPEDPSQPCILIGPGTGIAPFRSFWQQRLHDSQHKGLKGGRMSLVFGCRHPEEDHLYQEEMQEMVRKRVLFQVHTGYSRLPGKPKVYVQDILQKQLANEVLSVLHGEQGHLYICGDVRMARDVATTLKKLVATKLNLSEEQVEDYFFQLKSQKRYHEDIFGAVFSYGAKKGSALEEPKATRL
Kind of experiment: iNOS inhibitory activity in LPS-induced RAW264.7 macrophages (nitrite, Griess reagent). It counts as cell-based. Conditions: read-out: Inhibition (IC50) iNOS (converted). The method, then:
(§1) Phenolic acids and flavonoids used in HPLC analysis as well as all other reagents for biological investigations were obtained from Sigma Chemical Company […]
(§2) Inhibitory activity against key enzymes related to metabolic syndrome (MS) All assays were performed in 96-well plates. Stock solutions of the extract (100 mg/mL), fractions (100 mg/mL), and isolated compounds (1000 µM) were prepared. Tested samples that exceeded […]
(§3) inhibitory concentration (IC50). The percentage of enzyme inhibition was calculated according to […]
(§4) % Inhibition = (A−B) − (C−D) x 100 […]
Inducible nitric oxide synthase (iNOS) inhibitory activity iNOS inhibitory activity was determined in mouse macrophage cells (RAW264.7, Shanghai BOGO Industrial Co., Ltd., China) according to a previously designed method. Phenol red-free RPMI medium from Thermo-Fisher was used to develop macrophages. It was supplemented with 10% bovine calf serum, 100 U/mL of penicillin G sodium from Sigma-Aldrich, and 100 µg/mL of streptomycin (Sigma-Aldrich). Cells (50,000/well) were seeded onto 96-well plates, which were […]

The nature of experiment [2]: ABTS radical scavenging antioxidant assay. Details: ABTS AA (%) antioxidant activity percentage: concentration or dose not given beside the values. Conditions: for ABTS antioxidant activity: Trolox equivalent per gram of sample, mean ± SD, n=3; for ABTS AA (%) antioxidant activity percentage: compared to ascorbic acid (=100). As to the method: (§5) all of analytical grade. An electrothermal 9100 (UK) was used for the determination of melting points (uncorrected). A Jenway model 6800 spectrophotometer was utilized for recording UV spectra. A Tecan, microplate reader, ((Infinite F50, Switzerland)) was used to measure the absorbances. A Bruker NMR system was used for 1H-NMR (400 MHz) and 13C-NMR (100 MHz).
(§6) The NMR spectra were determined in CD3OH and DMSO-d6. Chemical shifts are given in δ (ppm) relative to the internal standard TMS. Phenolic acids and flavonoids used in HPLC analysis as well as all other reagents for biological investigations were obtained from Sigma Chemical Company […]
(§7) Determination of the antioxidant activity
(§8) 2,2`-Azino-bis(3-ethylbenzothiazoline-6-sulfonic acid) (ABTS), ferric reducing antioxidant power (FRAP), and oxygen radical absorbance capacity (ORAC) assays were performed according to the previously published procedures. Ascorbic acid was used as a reference antioxidant […]
drug. […]

Experiment [3] can be described thus: Ferric reducing antioxidant power (FRAP) assay. Also noted: FRAP AA (%) antioxidant activity percentage: concentration or dose not given beside the values. The note with it: for FRAP antioxidant activity: Trolox equivalent per gram of sample, mean ± SD, n=3; for FRAP AA (%) antioxidant activity percentage: compared to ascorbic acid (=100). The method, then:
as §5, §6, §7, §8
drug. […]

A short description of experiment [4]: Oxygen radical absorbance capacity (ORAC) assay. The note with it: for ORAC antioxidant activity: Trolox equivalent per gram of sample, mean ± SD, n=3; for ORAC AA (%) antioxidant activity percentage: compared to ascorbic acid (=100). The method, then: as §5, §6, §7, §8
drug. […]

For experiment [5], the target named is T2, Recombinant renin (Homo sapiens, UniProt P00797).
T2 construct: purchased BPS Bioscince
T2 sequence (P00797 67-406): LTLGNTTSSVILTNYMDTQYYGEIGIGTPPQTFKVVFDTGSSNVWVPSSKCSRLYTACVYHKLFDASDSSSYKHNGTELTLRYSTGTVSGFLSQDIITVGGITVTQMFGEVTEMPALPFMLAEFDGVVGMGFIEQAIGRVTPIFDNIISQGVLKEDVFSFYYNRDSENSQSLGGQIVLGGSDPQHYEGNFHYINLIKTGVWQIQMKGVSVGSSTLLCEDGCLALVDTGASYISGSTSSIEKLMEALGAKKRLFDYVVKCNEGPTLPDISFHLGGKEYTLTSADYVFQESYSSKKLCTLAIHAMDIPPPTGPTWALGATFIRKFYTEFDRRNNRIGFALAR
Kind of experiment: Renin inhibitory activity (renin-inhibitor screening assay kit). It counts as biochemical. Conditions: read-out: Inhibition (IC50) Renin (converted). As to the method: all of analytical grade. […]
as §1, §2, §3, §4
Renin inhibitory activity
The renin inhibitory activity was examined according to a previously described method using renin-inhibitor screening assay kit (BPS Bioscince, San Diego, CA, USA) and quinapril as a reference drug. Recombinant renin enzyme (50 μL) was dissolved in 50-mM Tris-HCl buffer (pH 8.0) and 100-mM NaCl (assay buffer) and stored at –80°C for further analysis. Twenty μL of renin substrate (A500 μM in DMSO), 150 μL of assay buffer, and 10 μL of each sample were used to prepare test solutions (10mg/ml in methanol). The blank samples were made using 10 μL of the sample, 20 μL of the substrate, and 160 μL of assay buffer. The positive control samples were created using 10 μL of methanol, 20 μL of substrate, and 150 μL of assay buffer. The positive control and tested samples were combined with 10 μL of the renin solution for the assay in order to catalyze the reaction. After that, the reaction mixture was incubated for 45 minutes at 37 °C.
The fluorescence generated at the 340 nm excitation and 490 nm emission wavelengths was measured using a microplate reader.
Xanthine oxidase (XO) inhibitory activity
Xanthine oxidase (XO) inhibitory potential was carried out according to a previous designed procedure using xanthine oxidase (XO, EC 1.17.3.2; Biovision, USA). Allopurinol was applied as a reference drug. Immediately prior to use, a mixture was made up of 50 μL of sample solution, 35 μL of phosphate buffer (70 mM, pH = 7.5), and 30 μL of new enzyme solution (0.01 units/mL in the same buffer). The reaction was started by adding 60 μL of the substrate solution (150 μM xanthine in the same buffer) following a pre-incubation at 25 °C for 15 minutes. After that, the mixture was incubated at 25 °C for 30 min. After adding 25 μL of 1 M HCl to terminate the reaction, the absorbance was measured at 290 nm with a microplate reader as previously

Regarding `C=C1C(=O)O[C@H]2[C@H]1CC/C(C)=C/CC[C@@]1(C)O[C@@H]21` [parthenolide, reference compound], the concentration for half-maximal inhibition (IC50) in experiment [1] (extract and fractions, Table S2, RAW264.7 cells) was 4.51 µM; in experiment [1] (isolated compounds, Table S7, RAW264.7 cells), 4.51 µM.
In the case of `O=c1c(O)c(-c2ccc(O)c(O)c2)oc2cc(O)cc(O)c12` [P5, quercetin], the results for the ABTS antioxidant activity in experiment [2] and in experiment [2] (listed as quercetin) were 244.01±0.29 μM TE/g and 244.01 ± 0.29 μM TE/g, respectively. Besides, in experiment [2], the “ABTS AA (%) antioxidant activity percentage” value amounted to 84.79%. The FRAP antioxidant activity in experiment [3] came to 139.03±0.65 μM TE/g; in experiment [3] (listed as quercetin), 139.03 ± 0.65 μM TE/g. Moreover, the “FRAP AA (%) antioxidant activity percentage” value in experiment [3] stood at 89.57%. The ORAC antioxidant activity in experiment [4] stood at 358.95±0.78 μM TE/g; in experiment [4] (listed as quercetin), 358.95 ± 0.78 μM TE/g. Moreover, in experiment [4], the “ORAC AA (%) antioxidant activity percentage” value came to 91.99%. Also, the concentration for half-maximal inhibition (IC50) in experiment [5] (isolated compounds, Table S7) was 21.9 ± 0.25 µM.
As to `O=C1O[C@H]([C@@H](O)CO)C(O)=C1O` [Ascorbic acid, reference compound], in experiment [2], the ABTS antioxidant activity was 287.78±1.01 μM TE/g and the “ABTS AA (%) antioxidant activity percentage” value stood at 100%. Moreover, in experiment [3], the FRAP antioxidant activity was 155.22±0.03 μM TE/g and the “FRAP AA (%) antioxidant activity percentage” value came to 100%. In addition, in experiment [4], the ORAC antioxidant activity is recorded as 390.21±0.99 μM TE/g and the “ORAC AA (%) antioxidant activity percentage” value is reported as 100%.
As for `CCOC(=O)[C@H](CCc1ccccc1)N[C@@H](C)C(=O)N1Cc2ccccc2C[C@H]1C(=O)O` [quinapril, reference compound], the IC50 was 0.0456 µM in experiment [5] (extract and fractions, Table S2); 0.045 µM in experiment [5] (isolated compounds, Table S7).
